Common to all, as to assay: relative viability (nuclei count vs DMSO), 5 days (fraction); higher = more cells survive
Compound in the test “BI-2536 + Dasatinib”: CC[C@@H]1C(=O)N(C)c2cnc(Nc3ccc(C(=O)NC4CCN(C)CC4)cc3OC)nc2N1C1CCCC1 [BI-2536] + Cc1nc(Nc2ncc(C(=O)Nc3c(C)cccc3Cl)s2)cc(N2CCN(CCO)CC2)n1 [Dasatinib] (partner 0.075 µM)
The method in brief:
(§1)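 Lung cancer cell lines in 1536-well plates got either a single drug or a fixed anchor-drug dose together with five library-drug doses (not always all listed) in √10 steps, by pin tool, on the day after seeding. Nuclei were counted after 5 days, and relative viability is the treated-to-vehicle ratio of nuclei counts. Values are medians of duplicate plates.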

Compound in test [1]: CC1CC(=O)N(C2=CN=C(N=C2N1C3CCCC3)NC4=C(C=C(C=C4)C(=O)NC5CCN(CC5)C)OC)C [NPK76-II-72-1] + C[C@]1(O)C[C@@H](c2nc(-c3ccc4ccc(-c5ccccc5)nc4c3)c3c(N)nccn32)C1 [Linsitinib] (partner 1 µM)
The method in brief: as §1

Compound in the test “BI-2536 + Tozasertib”: CC[C@@H]1C(=O)N(C)c2cnc(Nc3ccc(C(=O)NC4CCN(C)CC4)cc3OC)nc2N1C1CCCC1 [BI-2536] + Cc1cc(Nc2cc(N3CCN(C)CC3)nc(Sc3ccc(NC(=O)C4CC4)cc3)n2)n[nH]1 [Tozasertib] (partner 0.1 µM)
Summed up: as §1

Compound in the test “BI-2536 + Bortezomib”: CC[C@@H]1C(=O)N(C)c2cnc(Nc3ccc(C(=O)NC4CCN(C)CC4)cc3OC)nc2N1C1CCCC1 [BI-2536] + CC(C)C[C@H](NC(=O)[C@H](Cc1ccccc1)NC(=O)c1cnccn1)B(O)O [Bortezomib] (partner 0.002 µM)
Summed up: as §1

In the case of UMC-11, the relative viability was determined as 0.432 with BI-2536 + Dasatinib (first compound 0.01 µM); 0.243 in the test with BI-2536 + Dasatinib (first compound 0.03162 µM); 0.141 with BI-2536 + Dasatinib (first compound 0.1 µM); 0.183 with BI-2536 + Dasatinib (first compound 0.3162 µM); 0.158 with BI-2536 + Dasatinib (first compound 1 µM); 1 in test [1] (first compound 0.01 µM). Moreover, the relative viability in test [1] (first compound 0.03162 µM) stood at 1.08; in test [1] (first compound 0.1 µM) it was 1; in test [1] (first compound 0.3162 µM) it was 0.927; in test [1] (first compound 1 µM) it was 0.976; with BI-2536 + Tozasertib (first compound 0.01 µM) it was 0.184; with BI-2536 + Tozasertib (first compound 0.03162 µM), 0.203. The relative viability in the test with BI-2536 + Tozasertib (first compound 0.1 µM) stood at 0.198; with BI-2536 + Tozasertib (first compound 0.3162 µM), 0.31; with BI-2536 + Tozasertib (first compound 1 µM), 0.361; with BI-2536 + Bortezomib (first compound 0.01 µM), 0.601; with BI-2536 + Bortezomib (first compound 0.03162 µM), 0.414; with BI-2536 + Bortezomib (first compound 0.1 µM) it was 0.175. For the same cell line, the relative viability in the test with BI-2536 + Bortezomib (first compound 0.3162 µM) was 0.134; in the test with BI-2536 + Bortezomib (first compound 1 µM) it was 0.104.

For the origin of these results see the supplement of paper PMC10307832.
